Test results taken from patent US12247033B2, “Triazole-substituted imidazo[1,2-a]pyrimidines as cGAS inhibitors” (GlaxoSmithKline Intellectual Property Development Limited, priority 2022, dated 2025).
Counter-ions that a name gives are not always drawn.

system: CGAS; test: CGAS whole blood cytokine release assay (384-well, BacMam stimulation, IP-10 by cytometric bead array); type: cell-based; details: Homo sapiens, 6 h; read-out: hWB pXC50 (converted)
Protocol: Blood collection: Blood was collected in a tube containing 10% Sodium Heparin (5 ml/45 ml blood final).
Protocol for CGAS Whole Blood Cytokine Release Assay: Compounds serial diluted at 1:3 were provided at 150 nL per well, in a 384 well polypropylene microplate (cat. 781280; Greiner Bio-One, Frickenhausen, Germany). 5 μL of PBS/20% Null BacMam was dispensed to all wells except for column 18 on a Multidrop Combi (Thermo Scientific, Waltham, MA). 5 uL of PBS was dispensed into column 18. The Bravo (Agilent, Santa Clara, CA) was used to transfer 45 uL of donor derived blood into the compound plates. The Bravo protocol mixed the blood and compound/PBS 5 times. The plates were incubated at 37° C., 5% CO2, for 6 hours. At the 6 hour mark the plates were removed and centrifuged for 10 minutes at 3000 RPM. 3 uL of supernatant was transferred from the plate to a 384 well NBS microplate (cat. 4513; Corning Life Sciences, Corning, NY). These plates were sealed with adhesive foil and stored in a −80 freezer until ready for analysis.
For cytokine detection, Human IP-10 BD cytometric bead array (CBA) beads (BD Biosciences, Franklin Lakes, NJ) were used. Capture bead solution was prepared by performing a 1:50 dilution of the IP-10 capture bead stock solution in BD diluent for serum/plasma (cat. 51-9003991 BD Biosciences, Franklin Lakes, NJ). 2 μL of this solution was added per well to the assay microplates which were then sealed with adhesive foil and incubated at room temperature for 2 h in the dark. Detection reagent was further prepared by performing a 1:50 dilution of the detection reagent stock solution. 2 μL of detection reagent was added per well and microplates were sealed with adhesive foil and incubated at room temperature in the dark for 1 h. After the 1 h incubation 3 uL of BD CBA wash buffer was added per well of the microplates. Data were acquired on an iQue Screener flow cytometer. The iQue used fluorescence detection to quantify the inhibition of IP-10 present in the sample wells. A sip time of 1 second per sample was used. The blue laser with excitation of 488 nm and emission filters 585/40 nm were used to capture the mean and median of IP-10 with the detector in logarithmic mode (FL2-H).
All data analysis was carried out in IDBS ActivityBase XE.

Row | SMILES | IC50 [nM]
1 | FC(F)(F)COc1ccn2c(-c3cnc[nH]3)c(-c3nc(C(F)(F)F)n[nH]3)nc2n1 [Example 12, 5-[3-(1H-imidazol-5-yl)-7-(2,2,2-trifluoroethoxy)imidazo[1,2-a]pyrimidin-2-yl]-3-(trifluoromethyl)-1H-1,2,4-triazole] | 6310
2 | FC(F)(F)c1ccn2c(-c3cnc[nH]3)c(-c3nc(Br)n[nH]3)nc2n1 [Example 91, 3-bromo-5-[3-(1H-imidazol-5-yl)-7-(trifluoromethyl)imidazo[1,2-a]pyrimidin-2-yl]-1H-1,2,4-triazole] | 1000
3 | FC(F)Oc1n[nH]c(-c2nc3ncccn3c2-c2cnc[nH]2)n1 [Example 113, 3-(difluoromethoxy)-5-[3-(1H-imidazol-5-yl)imidazo[1,2-a]pyrimidin-2-yl]-1H-1,2,4-triazole] | 1000
4 | FC(F)(F)c1n[nH]c(-c2nc3ncc(CC4CCCC4)cn3c2-c2cnc[nH]2)n1 [Example 17, 5-[6-(cyclopentylmethyl)-3-(1H-imidazol-5-yl)imidazo[1,2-a]pyrimidin-2-yl]-3-(trifluoromethyl)-1H-1,2,4-triazole, trifluoroacetic acid salt] | 1260
5 | O=C(O)CCOC(=O)OCn1cnc(-c2c(-c3nc(C(F)(F)F)n[nH]3)nc3ncccn23)c1 [Example 32, 3-({[(4-{2-[3-(trifluoromethyl)-1H-1,2,4-triazol-5-yl]imidazo[1,2-a]pyrimidin-3-yl}-1H-imidazol-1-yl)methoxy]carbonyl}oxy)propanoic acid, 0.5 trifluoroacetic acid salt] | 3160
6 | CCOCc1cn2c(-c3cnc[nH]3)c(-c3nc(C(F)(F)F)n[nH]3)nc2nc1C(F)(F)F [Example 115, 5-[6-(ethoxymethyl)-3-(1H-imidazol-5-yl)-7-(trifluoromethyl)imidazo[1,2-a]pyrimidin-2-yl]-3-(trifluoromethyl)-1H-1,2,4-triazole] | 1580
7 | FC(F)(F)c1n[nH]c(-c2nc3ncc(C4(C(F)(F)F)CC4)cn3c2-c2cnc[nH]2)n1 [Example 144, 5-[3-(1H-imidazol-5-yl)-6-[1-(trifluoromethyl)cyclopropyl]imidazo[1,2-a]pyrimidin-2-yl]-3-(trifluoromethyl)-1H-1,2,4-triazole] | 794
8 | CS(=O)(=O)N1Cc2cn3c(-c4cnc[nH]4)c(-c4nc(C(F)(F)F)n[nH]4)nc3nc2C1 [Example 67, 12-(1H-imidazol-5-yl)-5-methanesulfonyl-11-[3-(trifluoromethyl)-1H-1,2,4-triazol-5-yl]-1,5,8,10-tetraazatricyclo[7.3.0.0^3,^7]dodeca-2,7,9,11-tetraene] | 2510
9 | CCOCc1cnc2nc(-c3nc(C(F)F)n[nH]3)c(-c3cnc[nH]3)n2c1 [Example 85, 3-(difluoromethyl)-5-[6-(ethoxymethyl)-3-(1H-imidazol-5-yl)imidazo[1,2-a]pyrimidin-2-yl]-1H-1,2,4-triazole] | 50.1
10 | FC(F)(F)c1ccn2c(-c3cn[nH]c3)c(-c3nc(C(F)(F)F)n[nH]3)nc2n1 [Example 93, 5-[3-(1H-pyrazol-4-yl)-7-(trifluoromethyl)imidazo[1,2-a]pyrimidin-2-yl]-3-(trifluoromethyl)-1H-1,2,4-triazole] | 2510
11 | OCc1ccn2c(-c3cnc[nH]3)c(-c3nc(C(F)(F)F)n[nH]3)nc2n1 [Example 9, [3-(1H-imidazol-5-yl)-2-[3-(trifluoromethyl)-1H-1,2,4-triazol-5-yl]imidazo[1,2-a]pyrimidin-7-yl]methanol, 0.3 trifluoroacetic acid salt] | 100
12 | CCN1Cc2cn3c(-c4cnc[nH]4)c(-c4nc(C(F)(F)F)n[nH]4)nc3nc2C(F)(F)C1 [Example 108, 11-ethyl-13,13-difluoro-6-(1H-imidazol-5-yl)-5-[3-(trifluoromethyl)-1H-1,2,4-triazol-5-yl]-2,4,7,11-tetraazatricyclo[7.4.0.0^3,^7]trideca-1,3,5,8-tetraene] | 631
13 | FC(F)(F)c1cnc2nc(-c3nc(C(F)(F)F)n[nH]3)c(-c3cnc[nH]3)n2c1 [Example 64, 5-[3-(1H-imidazol-5-yl)-6-(trifluoromethyl)imidazo[1,2-a]pyrimidin-2-yl]-3-(trifluoromethyl)-1H-1,2,4-triazole] | 398

Results, then the molecule that gave them:

Row | IC50 [nM] | SMILES
14 | 200 | Fc1cnc2nc(-c3nc(Br)n[nH]3)c(-c3c[nH]cn3)n2c1 [Example 159, 3-bromo-5-[6-fluoro-3-(1H-imidazol-4-yl)imidazo[1,2-a]pyrimidin-2-yl]-1H-1,2,4-triazole]
15 | 39.8 | CNCCOC(=O)OCn1cnc(-c2c(-c3nc(C(F)(F)F)n[nH]3)nc3ncccn23)c1 [Example 26, 2-(methylamino)ethyl (4-{2-[3-(trifluoromethyl)-1H-1,2,4-triazol-5-yl]imidazo[1,2-a]pyrimidin-3-yl}-1H-imidazol-1-yl)methyl carbonate, 2 trifluoroacetic acid salt]
16 | 794 | CCCOCCOCc1cnc2nc(-c3nc(C(F)(F)F)n[nH]3)c(-c3c[nH]cn3)n2c1 [Example 153, 5-[3-(1H-imidazol-4-yl)-6-[(2-propoxyethoxy)methyl]imidazo[1,2-a]pyrimidin-2-yl]-3-(trifluoromethyl)-1H-1,2,4-triazole]
17 | 398 | COC(=O)c1ccn2c(-c3c[nH]cn3)c(-c3nc(C(F)(F)F)n[nH]3)nc2n1 [Example 100, methyl 3-(1H-imidazol-4-yl)-2-[3-(trifluoromethyl)-1H-1,2,4-triazol-5-yl]imidazo[1,2-a]pyrimidine-7-carboxylate]
18 | 6310 | OCC1CN(Cc2ccn3c(-c4c[nH]cn4)c(-c4nc(C(F)(F)F)n[nH]4)nc3n2)C1 [Example 164, (1-{[3-(1H-imidazol-4-yl)-2-[3-(trifluoromethyl)-1H-1,2,4-triazol-5-yl]imidazo[1,2-a]pyrimidin-7-yl]methyl}azetidin-3-yl)methanol]
19 | 5010 | O=C(COCc1cnc2nc(-c3nc(C(F)(F)F)n[nH]3)c(-c3c[nH]cn3)n2c1)N1CCCC1 [Example 147, 2-{[3-(1H-imidazol-4-yl)-2-[3-(trifluoromethyl)-1H-1,2,4-triazol-5-yl]imidazo[1,2-a]pyrimidin-6-yl]methoxy}-1-(pyrrolidin-1-yl)ethan-1-one]
20 | 3980 | Cc1ccn(CCOCc2cnc3nc(-c4nc(C(F)(F)F)n[nH]4)c(-c4c[nH]cn4)n3c2)n1 [Example 148, 5-[3-(1H-imidazol-4-yl)-6-{[2-(3-methyl-1H-pyrazol-1-yl)ethoxy]methyl}imidazo[1,2-a]pyrimidin-2-yl]-3-(trifluoromethyl)-1H-1,2,4-triazole]
21 | 5010 | CC(=O)N(C)Cc1cnc2nc(-c3nc(C(F)(F)F)n[nH]3)c(-c3cnc[nH]3)n2c1 [Example 76, N-{[3-(1H-imidazol-5-yl)-2-[3-(trifluoromethyl)-1H-1,2,4-triazol-5-yl]imidazo[1,2-a]pyrimidin-6-yl]methyl}-N-methylacetamide]
22 | 126 | CC(=O)n1cnc(-c2c(-c3nc(C(F)(F)F)n[nH]3)nc3ncccn23)c1 [Example 62, 1-(4-{2-[3-(trifluoromethyl)-1H-1,2,4-triazol-5-yl]imidazo[1,2-a]pyrimidin-3-yl}-1H-imidazol-1-yl)ethan-1-one]
23 | 2510 | O=C(COCc1cnc2nc(-c3nc(C(F)(F)F)n[nH]3)c(-c3c[nH]cn3)n2c1)N1CCCCC1 [Example 152, 2-{[3-(1H-imidazol-4-yl)-2-[3-(trifluoromethyl)-1H-1,2,4-triazol-5-yl]imidazo[1,2-a]pyrimidin-6-yl]methoxy}-1-(piperidin-1-yl)ethan-1-one]
24 | 3980 | FC(F)(F)c1n[nH]c(-c2nc3ncc(COCCn4cc(Cl)cn4)cn3c2-c2c[nH]cn2)n1 [Example 151, 5-(6-{[2-(4-chloro-1H-pyrazol-1-yl)ethoxy]methyl}-3-(1H-imidazol-4-yl)imidazo[1,2-a]pyrimidin-2-yl)-3-(trifluoromethyl)-1H-1,2,4-triazole]
25 | 631 | CC1(C)Cc2nc3nc(-c4nc(C(F)(F)F)n[nH]4)c(-c4c[nH]cn4)n3cc2CO1 [Example 137, 6-(1H-imidazol-4-yl)-12,12-dimethyl-5-[3-(trifluoromethyl)-1H-1,2,4-triazol-5-yl]-11-oxa-2,4,7-triazatricyclo[7.4.0.0^3,^7]trideca-1,3,5,8-tetraene]
26 | 126 | FC(F)COCc1cnc2nc(-c3nc(C(F)(F)F)n[nH]3)c(-c3cnc[nH]3)n2c1 [Example 101, 5-{6-[(2,2-difluoroethoxy)methyl]-3-(1H-imidazol-5-yl)imidazo[1,2-a]pyrimidin-2-yl}-3-(trifluoromethyl)-1H-1,2,4-triazole]
27 | 501 | FC(F)(F)c1n[nH]c(-c2nc3ncc(COC4CCOCC4)cn3c2-c2c[nH]cn2)n1 [Example 65, 5-[3-(1H-imidazol-4-yl)-6-[(oxan-4-yloxy)methyl]imidazo[1,2-a]pyrimidin-2-yl]-3-(trifluoromethyl)-1H-1,2,4-triazole]
